Reference: paper PMC12771125, “Compounds Reducing Human Sperm Motility as Potential Nonhormonal Contraceptives Identified Using a High-Throughput Phenotypic Screening Platform” (ACS Omega, 2025)
≈ marks a conversion by molar mass, not a printed value. Like-named read-outs stand apart in the source and are kept apart here.

What was measured:
HepG2 cells = test: HepG2 cytotoxicity assay (resazurin, 72 h); assay type: cell-based, human; details: for EC50: Homo sapiens, HepG2, 72 h, read-out: HepG2 pEC50 (converted)
Description: Our overarching aims for investigating our chemical series and deciding which ones had the potential for further progression were to achieve adequate potency in our motility assay, suitable solubility, and minimal cytotoxicity in HepG2 cells. This third point was often the most challenging, as multiple series had cytotoxicity in HepG2 cells. This observation is perhaps not surprising; many potential targets in sperm cells can also be found in somatic cells. Our cytotoxicity assay is run with an incubation time of 72 h, to give time for gross cytotoxic effects to become apparent.
Compound dilution curves were plated directly using a Labcyte Echo 550 acoustic dispenser (125 nL) in 384-well white clear-bottom plates (Greiner). HepG2 cells (ATCCHepG2 HB-8065) were cultured in minimum essential medium (supplemented with glutamax) with 10% FCS and plated (25 μL) using a WellMate dispenser ([…]) and incubated for 72 h. Doxorubicin was used as a positive control drug. Resazurin was then added to each well at a final concentration of 45 μM, and fluorescence was measured using a PHERAstar LS (BMG Labtech) after 4 h of further incubation (excitation of 528 nm and emission of 590 nm). Raw data were normalized to controls and expressed as % growth.
Figure S2: Concentration-response curves from high throughput HepG2 viability assay. Each compound was tested in duplicate and the curves of each replicate are shown. The reported values in the tables are an average of the 2 pEC50 values obtained. […]
determine 0% effect, positive control used to determine 100% effect).
Hit compounds 1a, 6b and 7a were repurchased from commercial suppliers including enamine and […]

human sperm = test: Reduction of sperm motility (RSM) high-throughput phenotypic assay; assay type: cell-based; details: for EC50: Homo sapiens
Procedure: Using our previously established phenotypic human sperm motility screening platform, we screened a large subset (62,621 compounds) of one of our in-house diversity libraries (National Phenotypic Screening Centre (NPSC) Diversity Set) (Figure A,B). Briefly, human sperm are collected, isolated from semen, distributed into 384-well plates with test compounds, time-lapse images of sperm movement are recorded using a high-content imager, and progressive motility parameters are calculated using custom data analysis software. Sperm motility is complicated, and the mechanisms underpinning its regulation are not fully understood. Progressive motility, which is a measurement of the movement of forward progression of sperm, is most closely linked to sperm quality, and the percentage of progressively motile sperm compared to control is therefore the parameter utilized during the work described in this paper. […]
We used an HTS screening platform to assess the motility of live human spermatozoa. The platform and its development are described in detail in Gruber et al. , and summarized below in brief. The platform was used to screen compound libraries specifically focusing on reduction in motility. Interesting compounds were examined in further detail as possible starting points for a medicinal chemistry program. The experimental design is illustrated in Figure .
Donors were local to the Dundee area, over the age of 18, and had no known fertility problems and normal sperm concentration, motility and semen characteristics according to WHO 2021 criteria. Special category personal data for donors, such as ethnic origin, was not recorded in accordance with ethical approval and UK GDPR. Samples were obtained by masturbation, after sexual abstinence of 2–5 days, and delivered to the research laboratory within one h of production. Samples were allowed to liquefy at 37 °C for 15–30 min prior to preparation by discontinuous density gradient centrifugation (DGC). […] A minimum of 3 prepared donor samples were routinely pooled to reduce donor-to-donor variability for primary screening assays. Pooled samples were incubated for 3 h at 37 °C under noncapacitating conditions.
In brief, screening batches of cells were transferred to a robotic platform (HighRes Biosolutions Inc.) and maintained during the screen at 37 °C at 5% CO2. Assay-ready 384-well plates containing compounds were prepared prior to the screen and filled with approximately 10,000 spermatozoa (20 μL) per well using a liquid handling system (MultiDrop Combi; ThermoFisher). These plates were incubated for 10 min prior to imaging. The HTS system utilized a Yokogawa CV7000 Cell Voyager high-throughput microscope to record time-lapse images from 2 positions in each well. An adaptation of a tracking algorithm, Trackpy v0.4.1 was utilized to track individual spermatozoa within each well and obtain kinematic parameters. Within the compound-test plates, DMSO was used as the vehicle control.
All steps were performed as previously described. , In summary, data from every compound well were normalized to those from in-plate DMSO controls (wells containing the same amount of DMSO as compound wells). Two positions were recorded in every well, and the average of those positions was used for calculating % of control (median value/DMSO median) × 100. Each plate contained 16 DMSO control wells. Median curvilinear velocity (VCL) was used as the primary readout for the NPSC Diversity Set screened at 6 μM, and percentage progressive motility (PM) was used for all other libraries screened. Hits from the primary screening were chosen based on the % change compared to the control. In these experiments, an RSM of ≥20% compared to negative controls (DMSO) was chosen as a cutoff for potential progression.
In a screening program of this scale, a significant number of compounds are likely to have a negative effect on sperm motility, but a number will show general toxicity. […]

Aqueous solubility = assay type: physicochemical
[1] = 10 min, 10 min incubation, reduction of progressive sperm motility relative to control, reported <X (neg. log of top concentration) if largest reduction <70%, read-out: RSM pEC50 10 mins (converted)
[2] = 3 h incubation, reduction of progressive sperm motility relative to control, reported <X if largest reduction <70%, read-out: RSM pEC50 3 hrs (converted)
[3] = 6 h incubation, reduction of progressive sperm motility relative to control, reported <X if largest reduction <70%, read-out: RSM pEC50 6 hrs (converted)

EC50 (human sperm; [1]) [µM]	EC50 (human sperm; [2]) [µM]	EC50 (human sperm; [3]) [µM]	solubility (Aqueous solubility) [µM]	Molecule	EC50 (HepG2 cells) [µM]	increase in cytotoxicity against HepG2 cells (HepG2 cells; compared with hit 2a) [log]	increase in potency in the sperm motility assay (human sperm; after 6 h incubation, compared with hit 2a) [log-unit]	RSM pEC50 10 mins (human sperm; 10 min incubation, reduction of progressive sperm motility relative to control, reported <X (neg. log of top concentration) if largest reduction <70%)	RSM pEC50 3 hrs (human sperm; 3 h incubation, reduction of progressive sperm motility relative to control, reported <X if largest reduction <70%)	RSM pEC50 6 hrs (human sperm; 6 h incubation, reduction of progressive sperm motility relative to control, reported <X if largest reduction <70%)
> 31.6	> 31.6	> 31.6	–	CNC(=O)N1CCC2(CCN(Cc3cccc(F)c3)CC2)CC1 [Compound 9c]	–	–	–	–	–	–
> 31.6	3.16	1.26	–	O=C1COC2(CCN(Cc3ccoc3)CC2)CN1 [Compound 8e]	–	–	–	–	–	–
12.6	2	0.794	–	O=C1COC2(CCN(Cc3ccc(F)cc3)CC2)CN1 [Compound 8a, 9-(4-Fluorobenzyl)-1-oxa-4,9-diazaspiro[5.5]undecan-3-one]	> 100	–	–	–	–	–
> 31.6	> 31.6	25.1	–	O=C1COC2(CCN(Cc3ccco3)CC2)CN1 [Compound 8f]	–	–	–	–	–	–
> 31.6	2	1	–	O=C1COC2(CCN(Cc3ccsc3)CC2)CN1 [Compound 8d]	–	–	–	–	–	–
15.8	1.26	0.501	–	O=C1COC2(CCN(Cc3ccncc3)CC2)CN1 [Compound 8b]	–	–	–	–	–	–
> 31.6	6.31	1.58	–	O=C1COC2(CCN(Cc3cccnc3)CC2)CN1 [Compound 8c]	–	–	–	–	–	–
> 31.6	> 31.6	> 31.6	–	NC(=O)N1CCC2(CCN(Cc3ccc(F)cc3)CC2)CC1 [Compound 9e]	–	–	–	–	–	–
> 31.6	6.31	3.98	–	NC(=O)N1CCC2(CCN(Cc3cccc(F)c3)CC2)CC1 [Compound 9a, 9-(3-Fluorobenzyl)-3,9-diazaspiro[5.5]undecane-3-carboxamide]	> 100	–	–	–	–	–
> 31.6	> 31.6	> 31.6	–	Cc1ccc(CN2CCC3(CC2)CNC(=O)CO3)cc1 [Compound 8g]	–	–	–	–	–	–
> 31.6	> 31.6	> 31.6	–	CC(=O)N1CCC2(CCN(Cc3cccc(F)c3)CC2)CC1 [Compound 9b]	–	–	–	–	–	–
> 31.6	> 31.6	> 31.6	–	CN1CC2(CCN(Cc3ccc(F)cc3)CC2)OCC1=O [Compound 8h]	> 100	–	–	–	–	–

Further lines, the molecule ahead of its results:

Molecule	EC50 (human sperm; [1]) [µM]	EC50 (human sperm; [2]) [µM]	EC50 (human sperm; [3]) [µM]	solubility (Aqueous solubility) [µM]	EC50 (HepG2 cells) [µM]	increase in cytotoxicity against HepG2 cells (HepG2 cells; compared with hit 2a) [log]	increase in potency in the sperm motility assay (human sperm; after 6 h incubation, compared with hit 2a) [log-unit]	RSM pEC50 10 mins (human sperm; 10 min incubation, reduction of progressive sperm motility relative to control, reported <X (neg. log of top concentration) if largest reduction <70%)	RSM pEC50 3 hrs (human sperm; 3 h incubation, reduction of progressive sperm motility relative to control, reported <X if largest reduction <70%)	RSM pEC50 6 hrs (human sperm; 6 h incubation, reduction of progressive sperm motility relative to control, reported <X if largest reduction <70%)
O=C(Nc1nc(C2CC2)cs1)Nc1ccc(F)cc1F [Compound 3h]	> 31.6	> 31.6	> 31.6	–	63.1	–	–	–	–	–
Cc1cc(C)nc(-n2nc(C)cc2Nc2ccccc2)n1 [Compound 6a, 1-(4,6-dimethylpyrimidin-2-yl)-3-methyl-N-phenyl-1H-pyrazol-5-amine]	> 31.6	5.01	1.58	–	–	–	–	–	–	–
COc1cc(N2CCOCC2)ccc1Nc1ncc(Cl)c(Nc2ccccc2NS(C)(=O)=O)n1 [Compound 2a, N-(2-((5-Chloro-2-((2-methoxy-4-morpholinophenyl)amino)pyrimidin-4-yl)amino)phenyl)methanesulfonamide, reference compound]	3.98	2.51	2	30 (≈ 15.2 µg/mL)	3.98	–	–	–	–	–
CN1CCN(c2cc(N3CCCCC3)c3ccccc3n2)CC1 [Compound 7g]	> 31.6	> 31.6	> 31.6	210 (≈ 65.2 µg/mL)	50.1	–	–	–	–	–
CC(C)CNC(=O)Nc1nc(-c2ccccn2)cs1 [Compound 3l]	> 31.6	> 31.6	7.94	9.3 (≈ 2.57 µg/mL)	> 100	–	–	–	–	–
N#Cc1ccc(NC(=O)c2cc(Cl)ccc2O)cc1F [Compound 1d]	2.51	–	–	35 (≈ 10.2 µg/mL)	6.31	–	–	–	–	–
Oc1ccc(Nc2ccnc3cc(Cl)ccc23)cc1CN1CCCC1 [Compound 5b]	> 31.6	> 31.6	0.2	–	12.6	–	–	–	–	–
O=C(Nc1nc(-c2ccccc2)cs1)Nc1ccc(F)cc1F [Compound 3e]	> 31.6	> 31.6	> 31.6	0.24 (≈ 0.0795 µg/mL)	50.1	–	–	–	–	–
CS(=O)(=O)Nc1ccccc1Nc1nc(NC2CCOCC2)ncc1Cl [Compound 2f]	> 31.6	> 31.6	> 31.6	16 (≈ 6.37 µg/mL)	5.01	–	–	–	–	–
CN(c1ccccc1Nc1nc(Nc2ccc(CN3CCOCC3)cc2)ncc1Cl)S(C)(=O)=O [Compound 2d]	> 31.6	0.126	0.126	64 (≈ 32.2 µg/mL)	0.398	1	1	–	–	–
O=C(Nc1nc(-c2cccnc2)cs1)Nc1ccc(F)cc1F [Compound 3d]	> 31.6	> 31.6	> 31.6	1.5 (≈ 0.499 µg/mL)	> 100	–	–	–	–	–
O=C(Nc1cccc(Cl)c1)c1cc(Cl)ccc1O [Compound 1f]	5.01	–	–	4.1 (≈ 1.16 µg/mL)	6.31	–	–	–	–	–
NCCN(C(=O)c1ccc(F)cc1Cl)c1ccc(Cl)cc1 [Compound 1m]	> 31.6	> 31.6	> 31.6	–	63.1	–	–	–	–	–
N#Cc1ccc(NC(=O)c2ccccc2)cc1Cl [Compound 1i]	> 20	–	–	–	39.8	–	–	–	–	–
Oc1ccc(Nc2ccnc3cc(Cl)ccc23)cc1CN1CCNCC1 [Compound 5c]	> 31.6	> 31.6	0.794	–	12.6	–	–	–	–	–
Fc1ccc(Nc2ccnc3cc(Cl)ccc23)cc1CN1CCCC1 [Compound 5h]	> 31.6	> 31.6	> 31.6	–	–	–	–	–	–	–
CCN(CC)Cc1cc(Nc2ccnc3cc(Cl)ccc23)ccc1O [Compound 5a, 4-((7-Chloroquinolin-4-yl)amino)-2-((diethylamino)methyl)phenol, reference compound]	> 31.6	> 31.6	0.501	–	20	–	–	–	–	–
O=C(Nc1nc(-c2ccccn2)co1)Nc1ccc(F)cc1F [Compound 3n]	> 31.6	> 31.6	> 31.6	–	> 100	–	–	–	–	–
Fc1cccc(CN2CCC3(CCNCC3)CC2)c1 [Compound 9d]	> 31.6	> 31.6	> 31.6	–	63.1	–	–	–	–	–
2-(Phenoxymethyl)-N-(4-(pyridin-2-yl)thiazol-2-yl)benzamide [Compound 3a]	–	–	–	–	–	–	–	<4.5	5.0	5.3
